# In ChEMBL document CHEMBL6092158, “Green synthesis of neuroprotective spirocyclic chalcone derivatives and their role in protecting against traumatic optic nerve injury” (Eur J Med Chem, 2024):
# The source made the active and inactive calls. The rule behind the calls is not given here.
# Experiments:
# R28 [1] = assay: Cytoprotective activity against glutamate-induced cytotoxicity in rat R28 cells assessed as increase in cell viability at 10 uM incubated for 24 hrs in presence of glutamate by MTT assay; type: functional, cell-based
# R28 [2] = assay: Cytoprotective activity against hydrogen peroxide-induced cytotoxicity in rat R28 cells assessed as increase in cell viability at 10 uM preincubated for 24 hrs followed by incubation with H2O2 for 24 hrs by MTT assay; type: functional, cell-based
# Mus musculus [3] = assay: Inhibition of glutamate-induced JNK phosphorylation in retinal tissue of optic nerve crush C57BL/6J mouse model at 1 ug/ul administered into vitreous cavity immediately after ONC surgery and measured on day 7 post-surgery by western blot analysis; type: functional; conditions: dose 1.0 µg/microL, route ivt, time 7.0 day
# [4] = Acute toxicity in C57BL/6J mouse assessed as AST level in serum at 500 mg/kg, ip and measured on day 14; type: organism-based; conditions: in vivo, 336 h, time 14 day
# [5] = Acute toxicity in C57BL/6J mouse assessed as body weight at 500 mg/kg, ip measured for 14 days; type: organism-based; conditions: in vivo, 336 h, time 14 day
# [6] = Acute toxicity in C57BL/6J mouse assessed as ALT level in serum at 500 mg/kg, ip and measured on day 14; type: organism-based; conditions: in vivo, 336 h, time 14 day
# [7] = Acute toxicity in C57BL/6J mouse assessed as lung damage at 500 mg/kg, ip and measured on day 14 by Hematoxylin-Eosin staining based analysis; type: organism-based; conditions: in vivo, 336 h, time 14 day
# [8] = Induction of apoptosis in rat R28 cells assessed as viable cells incubated for 24 hrs by AnnexinV-FITC/PI staining based flow cytometry (reference value: 91.34%); type: toxicity, cell-based; conditions: read-out: Activity
# Mus musculus [9] = assay: Effect on total JNK level in retinal tissue of optic nerve crush C57BL/6J mouse model at 1 ug/ul administered into vitreous cavity immediately after ONC surgery and measured on day 7 post-surgery by western blot analysis; type: functional; conditions: dose 1.0 µg/microL, route ivt, time 7.0 day
# [10] = Acute toxicity in C57BL/6J mouse assessed as liver damage at 500 mg/kg, ip and measured on day 14 by Hematoxylin-Eosin staining based analysis; type: organism-based; conditions: in vivo, 336 h, time 14 day
# [11] = Effect on reactive oxygen species generation in rat R28 cells at 5 uM incubated for 24 hrs by DCFH-DA staining based flow cytometry (reference value: 0.49%); type: toxicity, cell-based; conditions: r28, 24 h
# [12] = Induction of apoptosis in rat R28 cells assessed as early apoptotic cells incubated for 24 hrs by AnnexinV-FITC/PI staining based flow cytometry (reference value: 1.53%); type: toxicity, cell-based; conditions: r28, 24 h
# [13] = Inhibition of glutamate-induced apoptosis in rat R28 cells assessed as early apoptotic cells incubated for 24 hrs by AnnexinV-FITC/PI staining based flow cytometry (reference value: 69.04%); type: functional; set-up: scale not given: the % may be the effect or the level left
# Mus musculus [14] = assay: Neuroprotective activity against optic nerve crush C57BL/6J mouse model assessed as increase in P1-N2 wave amplitude of optic nerve at 1 ug/ul administered into vitreous cavity immediately after ONC surgery and measured on day 7 post-surgery by F-EVP based electrophysiological analysis; type: functional, organism-based; conditions: dose 1.0 µg/microL, route ivt, time 7.0 day
# R28 [15] = assay: Cytoprotective activity against oxidative glutamate-induced cytotoxicity in rat R28 cells assessed as increase in cell viability at 1.25 to 2.5 uM incubated for 24 hrs by MTT assay; type: functional, cell-based; conditions: dose 1.25-2.5 µM
# R28 [16] = assay: Antioxidant activity in rat R28 cells assessed as inhibition of glutamate-induced oxidative stress by measuring decrease in intracellular MDA level; type: functional, cell-based
# [17] = Antioxidant activity in rat R28 cells assessed as inhibition of glutamate-induced reactive oxygen species generation at 5 uM incubated for 24 hrs by DCFH-DA staining based flow cytometry (reference value: 16.61%); type: functional; set-up: scale not given: the % may be the effect or the level left
# [18] = Acute toxicity in C57BL/6J mouse assessed as heart weight at 500 mg/kg, ip and measured on day 14; type: organism-based; conditions: in vivo, 336 h, time 14 day
# [19] = Acute toxicity in C57BL/6J mouse assessed as lungs weight at 500 mg/kg, ip and measured on day 14; type: organism-based; conditions: in vivo, 336 h, time 14 day
# Mus musculus [20] = assay: Neuroprotective activity against optic nerve crush C57BL/6J mouse model assessed as increase in ganglion cell layer complex at 1 ug/ul administered into vitreous cavity immediately after ONC surgery and measured on day 7 post-surgery by optical coherence examination analysis; type: functional, organism-based; conditions: dose 1.0 µg/microL, route ivt, time 7.0 day
# [21] = Acute toxicity in C57BL/6J mouse assessed as heart damage at 500 mg/kg, ip and measured on day 14 by Hematoxylin-Eosin staining based analysis; type: organism-based; conditions: in vivo, 336 h, time 14 day
# [22] = Acute toxicity in C57BL/6J mouse assessed as kidney weight at 500 mg/kg, ip and measured on day 14; type: organism-based; conditions: in vivo, 336 h, time 14 day
# [23] = Acute toxicity in C57BL/6J mouse assessed as animal activity level at 500 mg/kg, ip; type: organism-based; conditions: in vivo
# Mus musculus [24] = assay: Neuroprotective activity against optic nerve crush C57BL/6J mouse model assessed as increase in inner plexiform layer complex at 1 ug/ul administered into vitreous cavity immediately after ONC surgery and measured on day 7 post-surgery by optical coherence examination analysis; type: functional, organism-based; conditions: dose 1.0 µg/microL, route ivt, time 7.0 day
# [25] = Induction of apoptosis in rat R28 cells assessed as necrotic cells incubated for 24 hrs by AnnexinV-FITC/PI staining based flow cytometry (reference value: 2.54%); type: toxicity, cell-based; conditions: r28, 24 h
# R28 [26] = assay: Inhibition of glutamate-induced apoptosis in rat R28 cells assessed as decrease in number of PI-positive cells at 5 uM incubated for 24 hrs by Hoechst33342/PI staining based fluorescence microscopic analysis; type: functional, cell-based
# Cortical neurone [27] = assay: Antioxidant activity in rat primary cortical neuron assessed as inhibition of glutamate-induced reactive oxygen species generation at 5 uM incubated for 24 hrs by DCFH-DA staining based immunofluorescence analysis; type: functional, cell-based
# [28] = Acute toxicity in C57BL/6J mouse assessed as liver weight at 500 mg/kg, ip and measured on day 14; type: organism-based; conditions: in vivo, 336 h, time 14 day
# [29] = Acute toxicity in C57BL/6J mouse assessed as kidney damage at 500 mg/kg, ip and measured on day 14 by Hematoxylin-Eosin staining based analysis; type: organism-based; conditions: in vivo, 336 h, time 14 day
# [30] = Inhibition of glutamate-induced apoptosis in rat R28 cells assessed as necrotic cells incubated for 24 hrs by AnnexinV-FITC/PI staining based flow cytometry (reference value: 0.68%); type: functional; set-up: scale not given: the % may be the effect or the level left
# [31] = Acute toxicity in C57BL/6J mouse assessed as spleen weight at 500 mg/kg, ip and measured on day 14; type: organism-based; conditions: in vivo, 336 h, time 14 day
# Cortical neurone [32] = assay: Cytoprotective activity against oxidative glutamate-induced cytotoxicity in rat primary cortical neuronal cells assessed as increase in cell viability at 1.25 uM incubated for 24 hrs by CCK8 assay; type: functional, cell-based
# [33] = Cytotoxicity against rat R28 cells assessed as effect on cell viability by MTT assay; type: toxicity, cell-based
# [34] = Acute toxicity in C57BL/6J mouse assessed as spleen damage at 500 mg/kg, ip and measured on day 14 by Hematoxylin-Eosin staining based analysis; type: organism-based; conditions: in vivo, 336 h, time 14 day
# Mus musculus [35] = assay: Neuroprotective activity against optic nerve crush C57BL/6J mouse model assessed as restoration of P1 latency of optic nerve at 1 ug/ul administered into vitreous cavity immediately after ONC surgery and measured on day 7 post-surgery by […] based electrophysiological analysis; type: functional, organism-based; conditions: dose 1.0 µg/microL, route ivt, time 7.0 day
# [36] = Inhibition of glutamate-induced apoptosis in rat R28 cells assessed as viable cells incubated for 24 hrs by AnnexinV-FITC/PI staining based flow cytometry (reference value: 28.81%); type: functional
# [37] = Inhibition of glutamate-induced apoptosis in rat R28 cells assessed as late apoptotic cells incubated for 24 hrs by AnnexinV-FITC/PI staining based flow cytometry (reference value: 3.47%); type: functional; set-up: scale not given: the % may be the effect or the level left
# [38] = Antioxidant activity assessed as DPPH radical scavenging activity at 20 uM by DPPH assay; type: functional
# [39] = Acute toxicity in C57BL/6J mouse assessed as retinal damage at 500 mg/kg, ip and measured on day 14 by Hematoxylin-Eosin staining based analysis; type: organism-based; conditions: in vivo, 336 h, time 14 day
# R28 [40] = assay: Antioxidant activity in rat R28 cells assessed as inhibition of glutamate-induced reactive oxygen species generation by measuring decrease in fluorescence intensity at 5 uM incubated for 24 hrs by DCFH-DA staining based immunofluorescence analysis; type: functional, cell-based
# Mus musculus [41] = assay: Neuroprotective activity against optic nerve crush C57BL/6J mouse model assessed as increase in retinal nerve fibre layer thickness complex at 1 ug/ul administered into vitreous cavity immediately after ONC surgery and measured on day 7 post-surgery by optical coherence examination analysis; type: functional, organism-based; conditions: dose 1.0 µg/microL, route ivt, time 7.0 day
# Mus musculus [42] = assay: Neuroprotective activity against optic nerve crush C57BL/6J mouse model at 1 ug/ul administered into vitreous cavity immediately after ONC surgery and measured on day 7 post-surgery by optical coherence examination analysis; type: functional, organism-based; conditions: dose 1.0 µg/microL, route ivt, time 7.0 day
# [43] = Antioxidant activity assessed as DPPH radical scavenging activity at 100 uM by DPPH assay; type: functional
# [44] = Induction of apoptosis in rat R28 cells assessed as late apoptotic cells incubated for 24 hrs by AnnexinV-FITC/PI staining based flow cytometry (reference value: 4.59%); type: toxicity, cell-based; conditions: r28, 24 h
compound,measurement,setting,value
COc1cc(C(=O)[C@@H]2[C@@H](c3ccc(O)c(O)c3)CN(C)[C@@]23C(=O)Nc2ccccc23)ccc1O,Activity,R28 [1],Active
same,Activity,R28 [2],Active
COc1ccc(C(=O)[C@@H]2[C@@H](c3ccc(O)c(O)c3)CN(C)[C@@]23C(=O)Nc2ccccc23)cc1,Activity,R28 [1],Active
same,Activity,R28 [2],Active
CN1C[C@H](c2ccc(O)c(O)c2)[C@@H](C(=O)c2ccc(O)cc2)[C@]12C(=O)Nc1ccccc12,Activity,R28 [1],Active
same,Activity,R28 [2],Active
COc1ccc(C(=O)[C@@H]2[C@@H](c3ccc(O)c(O)c3)CN(C)[C@@]23C(=O)Nc2ccccc23)cc1OC,Activity,R28 [1],Active
same,Activity,R28 [2],Active
CN1C[C@H](c2ccc(O)c(O)c2)[C@@H](C(=O)c2cc(F)cc(F)c2)[C@]12C(=O)Nc1ccccc12,inhibition,Mus musculus [3],Active
same,Activity,[4],Non-toxic
same,Activity,[5],Non-toxic
same,Activity,[6],Non-toxic
same,Activity,[7],Non-toxic
same,viability at 24 h,[8],87.5%
same,Activity,Mus musculus [9],inactive
same,Activity,[10],Non-toxic
same,Activity,[11],2.05%
same,Activity,R28 [1],Active
same,Activity,[12],1.94%
same,Activity,[13],1.63%
same,Activity,Mus musculus [14],Active
same,Activity,R28 [15],Active
same,Activity,R28 [16],Active
same,Activity,[17],4.62%
same,Activity,[18],Non-toxic
same,Activity,[19],Non-toxic
same,Activity,Mus musculus [20],Active
same,Activity,[21],Non-toxic
same,Activity,[22],Non-toxic
same,Activity,[23],Non-toxic
same,Activity,Mus musculus [24],Active
same,Activity,[25],2.13%
same,inhibition,R28 [26],Active
same,Activity,Cortical neurone [27],Active
same,Activity,[28],Non-toxic
same,Activity,R28 [2],Active
same,Activity,[29],Non-toxic
same,Activity,[30],2.54%
same,Activity,[31],Non-toxic
same,Activity,Cortical neurone [32],Active
same,Activity,[33],Toxic
same,Activity,[34],Non-toxic
same,Activity,Mus musculus [35],Active
same,Activity,[36],89.77%
same,Activity,[37],6.05%
same,Activity,[38],Active
same,Activity,[39],Non-toxic
same,Activity,R28 [40],Active
same,Activity,Mus musculus [41],Active
same,Activity,Mus musculus [42],Active
same,inhibition,[43],95%
same,Activity,[44],8.4%
CN1C[C@H](c2ccc(O)c(O)c2)[C@@H](C(=O)c2ccccc2C(F)(F)F)[C@]12C(=O)Nc1ccccc12,Activity,R28 [1],inactive
same,Activity,R28 [2],inactive
CN1C[C@H](c2ccc(O)c(O)c2)[C@@H](C(=O)c2cccc(Cl)c2)[C@]12C(=O)Nc1ccccc12,Activity,R28 [1],Active
same,Activity,R28 [2],Active
CN1C[C@H](c2ccc(O)c(O)c2)[C@@H](C(=O)c2ccc(S(C)(=O)=O)cc2)[C@]12C(=O)Nc1ccccc12,Activity,R28 [1],inactive
same,Activity,R28 [2],inactive
CN1C[C@H](c2ccc(O)c(O)c2)[C@@H](C(=O)c2ccc(Cl)cc2Cl)[C@]12C(=O)Nc1ccccc12,Activity,R28 [1],Active
same,Activity,R28 [2],Active
CN1C[C@H](c2ccc(O)c(O)c2)[C@@H](C(=O)c2cccc(Br)c2)[C@]12C(=O)Nc1ccccc12,Activity,R28 [1],Active
same,Activity,R28 [2],Active
CN1C[C@H](c2ccc(O)c(O)c2)[C@@H](C(=O)c2cc(C(F)(F)F)cc(C(F)(F)F)c2)[C@]12C(=O)Nc1ccccc12,Activity,R28 [1],inactive
same,Activity,R28 [2],inactive
CN1C[C@H](c2ccc(O)c(O)c2)[C@@H](C(=O)c2ccc(Br)cc2)[C@]12C(=O)Nc1ccccc12,Activity,R28 [1],Active
same,Activity,R28 [2],Active
